These results are taken from paper PMC7803973, “Structural basis of malaria parasite phenylalanine tRNA-synthetase inhibition by bicyclic azetidines” (Nature Communications, 2021).

One data set relates to N[C@@H](Cc1ccccc1)C(=O)O. As to the kind of experiment: Kinetic parameter (Km) determination, malachite green. The format is biochemical, Plasmodium falciparum. The following applies: other: PfcFRS mutant (L550V); ATP saturating 500 μM; pH 7.5; 37.0 °C. The method, then:
(§1) In both cases the reaction was carried out for 2 h at 37 °C. Data were fitted to Michaelis–Menten equations using Prism graph 6.0 software.

The next data set has as its system PfcFRS mutant (L550V). The data set is described as above. It is filed as biochemical, Plasmodium falciparum. As to conditions: PfcFRS-L550V versus PfcFRS WT. The protocol:
as §1

For data set [1], the system named is Plasmodium falciparum strain K1. The data set is described as follows: microbe, parasite or virus in culture. The format is cell-based. The following applies: K1; for IC50: Plasmodium falciparum. The method, then: (§2) The cultivation of P. falciparum was conducted according to Trager’s method with some modification. Precisely, parasites were kept in culture flasks with RPMI1640 medium supplemented with 10% human plasma and 2% fresh human erythrocytes and incubated at 37 °C with the gas condition of 5% CO2 and 5% O2. The parasitemia (percentage of infected erythrocytes to total erythrocytes) were kept within 0.25–10%. Culture medium was replaced, and fresh erythrocytes were supplied every 2–3 days. Drug susceptibility test was conducted according to Desjardins’s method[18] with some modification. […] […] The plates were kept at 37 °C with the gas condition of 5% CO2 and 5% O2 for 72 h and then parasite growth was quantified with Makler’s method to detect plasmdoial lactate dehydrogenase[19] with some modification. Precisely, culture plates were kept in freezer overnight and then thawed at 37 °C to disrupt the erythrocytes and parasite cells. In the new 96-well titer plates, 100 μl of enzyme reaction solution (110 mM Li-lactate, 0.5 mM acetylpyridine-adenine dinucleotide, 50 mM Tris (pH 7.5), 10 mM EDTA, 50 mM KCl, and 15 g l^−1 PEG6000) and 20 µl of freeze-thaw culture were mixed in each well and then kept at room temperature for 30 min. The detection solution was prepared by mixing equal volume of 2 mg ml^−1 nitro blue tetrazolium and 0.1 mg ml^−1 phenazine ethosulfate and 20 µl of the solution was added to each well.

For data set [2], the system named is Plasmodium falciparum strain 3D7. The data set is described as follows: Parasite growth inhibition (drug susceptibility test, pLDH readout). It is filed as cell-based. The following applies: 3D7; for IC50: Plasmodium falciparum. The protocol:
as §2

The test system of a further data set is parasite. On the set-up: method as in PMID 27602946. The following applies: increasing concentrations of L-Phe; cited from earlier work.
Substrate in data set [3]: N[C@@H](Cc1ccccc1)C(=O)O
As to the kind of experiment: Kinetic parameter (Km) determination, malachite green. As to conditions: other: PfcFRS WT; ATP saturating 500 μM; pH 7.5; 37.0 °C. The format is biochemical, Plasmodium falciparum. The protocol:
as §1

Data set [4] deals with the molecule itself. The data set is described as follows: crystal structure; PvcFRS with BRD1389 and Mg2+, space group P2(1)2(1)2, one αβ heterodimer per asymmetric unit, 3.0 Å.
Data set [5] concerns the molecule itself. As to the kind of experiment: SEC; purified PvcFRS on a Superdex 200 analytical gel filtration column.

Values joined by “and” are separate entries in the source; they are usually repeats but may differ in a detail not shown here. Identical values can stand only once.

As a reminder, the Km is the concentration of substrate that gives half-maximal velocity. In the case of “PfcFRS mutant (L550V) (Plasmodium falciparum 3D7; L550V)”, in the data set on N[C@@H](Cc1ccccc1)C(=O)O, the Km was 1.85 ± 0.84 µM.

Take `N[C@@H](Cc1ccccc1)C(=O)O` [L-Phe, L-phenylalanine]: the “increase in Km value for L-Phe, mutant vs WT” value in the data set with PfcFRS mutant (L550V) was 10 fold and ~ 10 fold.

One may read the IC50 as the concentration that gives 50% inhibition. A high value points to lower potency. Regarding `C[C@@H]1CC[C@H]2[C@@H](C)C(=O)O[C@@H]3O[C@@]4(C)CC[C@@H]1[C@]32OO4` [Artemisinin, artemisinin], the “% Parasite Growth” value was found to be 95.0% in data set [1] (0.000195313 ug/mL); 92.3% in data set [1] (0.000390625 ug/mL); 92.8% in data set [1] (0.00078125 ug/mL); 94.4% in data set [1] (0.0015625 ug/mL); 92.0% in data set [1] (0.003125 ug/mL); 76.5% in data set [1] (0.00625 ug/mL). For the same molecule, the “% Parasite Growth” value is 6.1% in data set [1] (0.0125 ug/mL); 2.9% in data set [1] (0.025 ug/mL); 3.5% in data set [1] (0.05 ug/mL); 3.3% in data set [1] (0.1 ug/mL); 3.6% in data set [1] (0.2 ug/mL); 91.8% in data set [2] (0.000195313 ug/mL). The “% Parasite Growth” value turned out to be 88.1% in data set [2] (0.000390625 ug/mL); 90.1% in data set [2] (0.00078125 ug/mL); 91.8% in data set [2] (0.0015625 ug/mL); 91.0% in data set [2] (0.003125 ug/mL); 92.6% in data set [2] (0.00625 ug/mL); 61.0% in data set [2] (0.0125 ug/mL). Besides, the “% Parasite Growth” value in data set [2] (0.025 ug/mL) worked out at 3.0%; in data set [2] (0.05 ug/mL), 2.5%; in data set [2] (0.1 ug/mL), 2.3%; in data set [2] (0.2 ug/mL), 2.8%. Further, the IC50 in data set [1] is 0.00811 µg/mL and 28.7 nM; in data set [2], 0.0143 µg/mL and 50.5 nM.

As for `CCN(CC)CCCC(C)Nc1ccnc2cc(Cl)ccc12` (centres unmarked) [Chloroquine, chloroquine], the 50% inhibitory concentration (IC50) in data set [1] was 0.139 µg/mL and 269 nM; in data set [2], 0.00914 µg/mL and 17.7 nM.

As for `COc1ccc(NC(=O)N2CCCCN3[C@H](CN)[C@H](c4ccc(C#Cc5ccccc5)cc4)[C@@H]3C2)cc1` [BRD1095], in the data set on parasite, the “EC50 shift with L-Phe” value is listed as “higher EC50 values with increasing concentrations of L-Phe”.

B1: PfcFRS wild type (WT) (Plasmodium falciparum 3D7) (protein)
chain: MSTNNVEEKKNEELYNLLNILEEEFNLSKIENKNNNKNDDGDDDDVNKREDNNNNEYYKKLKDEKGLDVLINEYTTSLKISKKYNIDHNKVMGMIKKLETLYYIINLIKSFNTYHLSDEGKQYLKEGSPEFIVIKYVIQNNKCTLEDLKKNLGKIGDIGLNTNLKNRTIQLNKADKCLTCNCNLHDIQDFTQIYLDIINQYGHDEELLFAHLKNKNHTKNALNNNEMKNSCKDNNIINNLIQDLKKRKLLEIKKNSYSHVIKTSIFKKDIKKQITDINYLLLKNEEYKKYDIKKYNFFSSGKKINKGNIHLLTKQMRTFKEIFFSLGFEEMETHNYVESSFWCFDALYIPQQHPSRDLQDTFFIKEPETCIDKFVDTEYIDNIKRVHTHGDYGSFGWNYKWKLEESKKNVLRTHTTANSCRALFKLAKEYKEAGCIKPKKYFSIDRVFRNENLDSTHLAEFHQVEGLIIDKNIGLSHLIGTLAAFYKHIGIHKLKFKPTFNPYTEPSMEIYGYHEQSKKWLEVGNSGIFRPEMLRSMGFSEEVSVIAWGLSLERPTMIKYNIKNIRDLFGYKSVV
On to B1, for which the Km in data set [3] worked out at 0.25 ± 0.017 µM.

B2: PvcFRS αβ heterodimer as in the crystal (alpha subunit without residues 1-270) (complex, Plasmodium vivax)
chain 1: LTYLLIKNEEYKKYQVKKYNFFSSGKKMNKGNIHLLIRQMRTFKDVFVSLGFEEMNTHNYVESSFWCFDALYIPQQHPSRDLQDTFFIKVPEMCQEEFTDQSYIENVKRVHSVGDYGSFGWNYQWELKSTKKNVLRTHTTANSCRALFQLAKEYQKTGSIIPKKFFSIDRVFRNENLDSTHLAEFHQVEGLIIDRNLGLSHLIGTLSAFYKYIGISKLRFKPTFNPYTEPSMEVYGYHEENKKWLEVGNSGIFRPEMLRAMGFPPEVSVIAWGLSLERPTMIKYSIRNIRDLFGYRSVI
chain 2: MPTISVHEEDLIEKLGEKIEEEKLNDICFEFGIEIDDVEYKGEKKIYKIEVPANRYDLVCVEGLCRALKSFIGKYENVSYALLTNSEEACVKEKHFMRVDESVDERRSYVVSAVLKNVKMNENVYNNIIELQEKLHHNLGKKRILLAIGIHDYDKINFPVAYKFEEKEKINFIPLNETQNVNGNNFINFYQDNINLKSYLKIISDFEKFPVIVDAGGQILSLPPIINCDYTKITYDTRNLFIECTAIDRNKAEIAVNIICSMLSEYCTPKYSIHSFFVQYDKNHKAEKGNGYLYPVFKNKTLTCHMDYVRKLSGILNLSVKDVEPLLKKMMITSKVIDSSTFTVDVPFYRSDIMHFCDIVEDIAIAYGYGNIVSEKIEIAKKNSLSACTELFRNVLAECTYTEVMTNALLSKRENYDCMLRKHRSYDDRKINLDEYNPLAPPVQIMNSKTSEYEIVRTSLIVNMLKFVSANKHRELPLRFFEIGDVSYTTYDRTDTNAVNKRYLSVIFADKFTAGLEEAHGMLETVLKEFQLFSDYKIEEKSKENVAIRSDVFYKLVPKEDPSFLNERVVDIVLCPHNLKFGIMGIIHPKVLENFSIDIPVSVIEINIETIMDVLMM
notes: PvcFRS alpha subunit, Plasmodium vivax, gene PVX_081300; N-terminal domain (residues 1-270) absent in the crystal; PvcFRS beta subunit, Plasmodium vivax, gene PVX_090880, full length; also called heterodimer (αβ); PvcFRS-BRD1389 complex; source: E. coli B834, both subunits co-expressed, purified (Ni-NTA, heparin); crystallised with BRD1389 and MgCl2
For the molecule B2, the binding result in data set [4] is listed as “binds”.

B3: PvcFRS αβ heterodimer (full-length subunits) (complex, Plasmodium vivax)
chain 1: MQAKAQEEQKGEELSQFLQALEEEFALCQEGGGDKREADGPSLENAEAEELANRRAYYLQLKEERNVLVEESKHVTSLHMSSKHNIEHAKVLGMAKKLETLYYVVNHVRSFNTYQLTEEGKEYLRDGSPEHVTLRYVMEQEGCTLEDLKKLFGKKGEIGLNINLKKKKIELRKSDKRLFPHVEGSAHSLVDETRCYLQKVEAHGNDEGALVSHLKGILPPEKGEKKEEDEANNLIKELKKRKLIEAKKISYIYIIRTNLFTKEIKKQITDLTYLLIKNEEYKKYQVKKYNFFSSGKKMNKGNIHLLIRQMRTFKDVFVSLGFEEMNTHNYVESSFWCFDALYIPQQHPSRDLQDTFFIKVPEMCQEEFTDQSYIENVKRVHSVGDYGSFGWNYQWELKSTKKNVLRTHTTANSCRALFQLAKEYQKTGSIIPKKFFSIDRVFRNENLDSTHLAEFHQVEGLIIDRNLGLSHLIGTLSAFYKYIGISKLRFKPTFNPYTEPSMEVYGYHEENKKWLEVGNSGIFRPEMLRAMGFPPEVSVIAWGLSLERPTMIKYSIRNIRDLFGYRSVI
chain 2: MPTISVHEEDLIEKLGEKIEEEKLNDICFEFGIEIDDVEYKGEKKIYKIEVPANRYDLVCVEGLCRALKSFIGKYENVSYALLTNSEEACVKEKHFMRVDESVDERRSYVVSAVLKNVKMNENVYNNIIELQEKLHHNLGKKRILLAIGIHDYDKINFPVAYKFEEKEKINFIPLNETQNVNGNNFINFYQDNINLKSYLKIISDFEKFPVIVDAGGQILSLPPIINCDYTKITYDTRNLFIECTAIDRNKAEIAVNIICSMLSEYCTPKYSIHSFFVQYDKNHKAEKGNGYLYPVFKNKTLTCHMDYVRKLSGILNLSVKDVEPLLKKMMITSKVIDSSTFTVDVPFYRSDIMHFCDIVEDIAIAYGYGNIVSEKIEIAKKNSLSACTELFRNVLAECTYTEVMTNALLSKRENYDCMLRKHRSYDDRKINLDEYNPLAPPVQIMNSKTSEYEIVRTSLIVNMLKFVSANKHRELPLRFFEIGDVSYTTYDRTDTNAVNKRYLSVIFADKFTAGLEEAHGMLETVLKEFQLFSDYKIEEKSKENVAIRSDVFYKLVPKEDPSFLNERVVDIVLCPHNLKFGIMGIIHPKVLENFSIDIPVSVIEINIETIMDVLMM
notes: PvcFRS alpha subunit, Plasmodium vivax, gene PVX_081300, full length; PvcFRS beta subunit, Plasmodium vivax, gene PVX_090880, full length; The heterodimer that pairs with itself to the (αβ)2 heterotetramer in solution; also called heterodimer (αβ); source: E. coli B834, both subunits co-expressed, purified (Ni-NTA, heparin)
The term stoichiometry N denotes a count of units in the complex or per binding partner. As for B3, the “stoichiometry N” value in data set [5] came to 2.
